Assay results from patent publication US9988429B2, “Glucagon analogues” (Zealand Pharma A/S, priority 2013, dated 2018).
Starred links: 1 amine or outer side, 2 acyl side, 3 side chain; linkers in the order of their positions; H or OH if unused. Non-standard residues stand in square brackets, D forms with d. Residues, ends and D or L forms follow the SMILES beside them. Groups on a side chain read outwards from the residue. *: point of attachment. γGlu = O=C(O)[C@H](CCC(=O)[*:2])N[*:1]; Palmitoyl = CCCCCCCCCCCCCCCC(=O)*; Ac4c = NC1(C(=O)O)CCC1; Aib = CC(C)(N)C(=O)O

Assays:
Assay type in all cases: cell-based
[1] = target: T1, human glucagon-like peptide 1 receptor (GLP-1R) (Homo sapiens, UniProt P43220); assay: GLP-1 receptor efficacy assay (cAMP AlphaScreen, CHO cells); settings: for Ratio GLP-1/Glucagon: EC50 [GLP-1R] / EC50 [Glucagon-R], human receptors in CHO-K1; for EC50: cAMP formation, CHO cells expressing human GLP-1-R, read-out: EC50 hGLP-1R CHO-K1
T1 construct: expressed in transfected cells
T1 sequence (P43220 24-463): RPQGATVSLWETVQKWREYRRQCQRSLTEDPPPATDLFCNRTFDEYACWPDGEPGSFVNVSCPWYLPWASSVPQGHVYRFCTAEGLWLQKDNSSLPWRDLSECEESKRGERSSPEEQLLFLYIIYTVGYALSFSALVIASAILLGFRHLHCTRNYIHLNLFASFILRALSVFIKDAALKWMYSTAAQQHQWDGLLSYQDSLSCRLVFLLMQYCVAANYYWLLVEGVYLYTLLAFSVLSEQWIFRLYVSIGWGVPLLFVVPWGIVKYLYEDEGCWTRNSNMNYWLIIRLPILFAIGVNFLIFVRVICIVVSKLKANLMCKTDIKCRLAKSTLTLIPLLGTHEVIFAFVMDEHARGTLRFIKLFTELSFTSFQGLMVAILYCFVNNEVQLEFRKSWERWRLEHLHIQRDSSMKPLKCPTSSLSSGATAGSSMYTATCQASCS
Protocol: (§1) The mammalian expression vectors encoding the Glucagon-R or the GLP-1-R were transfected into Chinese hamster ovary (CHO) cells by the Attractene method. Stably expressing clones were obtained by Zeocin selection (250 μg/mL) upon limited dilution of cells resistant to the selection pressure. […] One Glucagon-R expressing clone and one GLP-1-R expressing clone were chosen for compound profiling.
(§2) CHO cells expressing the human Glucagon-R, or human GLP-1-R were seeded 24 hours prior to the assay at 30,000 cells per well in 96-well microtiter plates in culture in 100 μl growth medium. On the day of analysis, growth medium was removed and the cells were washed once with 200 μl of assay buffer (Krebs-Ringer-buffer—KRBH). The buffer was removed and the cells were incubated for 15 min at room temperature in 10 μl KRBH (KRBH+10 mM HEPES, 5 mM NaHCO3, 0.1% (V/V) BSA) with 0.1 mM IBMX in deionized water containing increasing concentrations of test peptides. The reaction was stopped by the addition of lysis buffer (0.1% w/v BSA, 5 mM HEPES, 0.3% v/v Tween-20). After cell lysis for 10 min at room temperature, lysates were transferred to 384-well plates and 10 μl of acceptor/donorbead mixture as contained in the AlphaScreen™ cAMP Functional Assay Kit was added. After one hour of incubation at room temperature in the dark, the cAMP content was determined applying the AlphaScreen™ cAMP Functional Assay Kit from Perkin-Elmer according to manufacturer instructions. […] The GLP-1/glucagon ratio is calculated as defined earlier.

[2] = target: T2, human glucagon receptor (Glucagon-R) (Homo sapiens, UniProt P47871); assay: Glucagon receptor efficacy assay (cAMP AlphaScreen, CHO cells); settings: cAMP formation, CHO cells expressing human Glucagon-R; read-out: EC50 hGCGR CHO-K1
T2 construct: expressed in transfected cells
T2 sequence (P47871 26-477): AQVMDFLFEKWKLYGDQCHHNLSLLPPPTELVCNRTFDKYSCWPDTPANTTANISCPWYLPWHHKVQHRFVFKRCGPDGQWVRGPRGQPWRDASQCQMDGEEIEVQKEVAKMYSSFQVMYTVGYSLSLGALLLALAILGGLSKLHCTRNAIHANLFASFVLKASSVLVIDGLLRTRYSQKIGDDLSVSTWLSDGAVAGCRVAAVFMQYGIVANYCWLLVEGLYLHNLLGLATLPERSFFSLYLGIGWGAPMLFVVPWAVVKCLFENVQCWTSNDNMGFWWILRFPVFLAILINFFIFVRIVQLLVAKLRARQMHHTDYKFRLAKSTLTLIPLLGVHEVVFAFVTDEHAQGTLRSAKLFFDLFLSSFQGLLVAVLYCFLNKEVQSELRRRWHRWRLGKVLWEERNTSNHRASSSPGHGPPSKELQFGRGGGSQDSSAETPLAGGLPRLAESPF
Protocol: as §1, §2

[3] = target: T3, endogenous GLP-1 receptors (Mus musculus, UniProt O35659); assay: Agonistic activity on endogenous GLP-1 receptor, cAMP in murine insulinoma cell line; settings: intracellular cAMP
T3 construct: Agonistic activity of the test compounds on endogenous GLP-1 receptors; endogenous in cells
T3 sequence (O35659 22-463): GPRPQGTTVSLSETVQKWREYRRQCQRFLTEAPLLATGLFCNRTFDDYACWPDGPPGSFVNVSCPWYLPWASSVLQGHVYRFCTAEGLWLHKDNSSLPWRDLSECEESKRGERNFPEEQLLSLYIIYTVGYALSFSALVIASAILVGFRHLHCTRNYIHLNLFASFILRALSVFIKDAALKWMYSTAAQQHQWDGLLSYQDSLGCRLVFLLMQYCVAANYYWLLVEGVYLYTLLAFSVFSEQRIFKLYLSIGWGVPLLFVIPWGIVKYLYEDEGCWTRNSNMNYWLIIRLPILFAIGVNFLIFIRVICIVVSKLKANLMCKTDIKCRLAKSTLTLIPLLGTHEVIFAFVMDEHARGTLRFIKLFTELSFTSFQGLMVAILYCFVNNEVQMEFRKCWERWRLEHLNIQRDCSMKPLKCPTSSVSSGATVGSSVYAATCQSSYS
Protocol: Agonistic activity of the test compounds on endogenous GLP-1 receptors was determined using a murine insulinoma cell line. Intracellular cAMP was used as an indicator of receptor activation.
Cells were cultured for 24 h at a density of 10,000 cells/well in a 384-well plate. Medium was removed and 10 μL KRBH buffer (NaCl 130 mM, KCl 3.6 mM, NaH2PO4 0.5 mM, MgSO4 0.5 mM, CaCl2 1.5 mM) containing test compound or GLP-1 (at increasing concentrations from 0.1 pM to 100 nM) or solvent control (0.1% (v/v) DMSO) was added to the wells for 15 minutes at a temperature of 26° C.
The cellular cAMP content is measured using the AlphaScreen cAMP Functional Assay Kit (Perkin Elmer). Measurement was performed using the Envision (PerkinElmer) according to manufacturer's recommendations.
All measurements were performed in quadruplicate.
The resulting cAMP curves were plotted as absolute cAMP concentrations (nM) over log (test compound concentration) and analyzed using the curve fitting program XLfit.

Row | Compound | Ratio GLP-1/Glucagon [1] | EC50 [2] | EC50 [1] | EC50 [3]
1 | CCCCCCCCCCCCCCCC(=O)N[C@@H](CCC(=O)NCCCC[C@H](NC(=O)[C@H](CO)NC(=O)[C@H](CC(=O)O)NC(=O)[C@H](CC(C)C)NC(=O)[C@H](Cc1ccc(O)cc1)NC(=O)[C@H](CCCCN)NC(=O)[C@H](CO)NC(=O)[C@H](Cc1ccc(O)cc1)NC(=O)[C@H](CC(=O)O)NC(=O)[C@H](CO)NC(=O)[C@@H](NC(=O)[C@H](Cc1ccccc1)NC(=O)[C@@H](NC(=O)CNC(=O)[C@H](CCC(N)=O)NC(=O)C1(NC(=O)[C@@H](N)Cc2c[nH]cn2)CCC1)[C@@H](C)O)[C@@H](C)O)C(=O)N[C@@H](C)C(=O)N[C@@H](C)C(=O)N[C@@H](Cc1c[nH]cn1)C(=O)N[C@@H](CC(=O)O)C(=O)N[C@@H](Cc1ccccc1)C(=O)N[C@H](C(=O)N[C@@H](CCC(=O)O)C(=O)N[C@@H](Cc1c[nH]c2ccccc12)C(=O)N[C@@H](CC(C)C)C(=O)N[C@@H](CC(C)C)C(=O)N[C@@H](CO)C(=O)N[C@@H](C)C(N)=O)C(C)C)C(=O)O [Compound 4] | 2.59 | 0.12 nM | – | –
2 | CCCCCCCCCCCCCCCC(=O)N[C@@H](CCC(=O)NCCCC[C@H](NC(=O)[C@H](CO)NC(=O)[C@H](CC(=O)O)NC(=O)[C@H](CC(C)C)NC(=O)[C@H](Cc1ccc(O)cc1)NC(=O)[C@H](CCCCN)NC(=O)[C@H](CO)NC(=O)[C@H](Cc1ccc(O)cc1)NC(=O)[C@H](CC(=O)O)NC(=O)[C@H](CO)NC(=O)[C@@H](NC(=O)[C@H](Cc1ccccc1)NC(=O)[C@@H](NC(=O)CNC(=O)[C@H](Cc1c[nH]cn1)NC(=O)[C@H](CO)NC(=O)[C@@H](N)Cc1c[nH]cn1)[C@@H](C)O)[C@@H](C)O)C(=O)N[C@@H](C)C(=O)N[C@@H](C)C(=O)N[C@@H](Cc1c[nH]cn1)C(=O)N[C@@H](CC(=O)O)C(=O)N[C@@H](Cc1ccccc1)C(=O)N[C@H](C(=O)N[C@@H](CCC(=O)O)C(=O)N[C@@H](Cc1c[nH]c2ccccc12)C(=O)N[C@@H](CC(C)C)C(=O)N[C@@H](CC(C)C)C(=O)N[C@@H](CO)C(=O)N[C@@H](C)C(N)=O)C(C)C)C(=O)O [Compound 5] (H-HSHGTFTSDYSKYLDSK([γGlu-Palmitoyl])AAHDFVEWLLSA-NH2) | 2.25 | 0.12 nM | 0.27 nM | –
3 | CCCCCCCCCCCCCCCC(=O)N[C@@H](CCC(=O)NCCCC[C@H](NC(=O)[C@H](CO)NC(=O)[C@H](CC(=O)O)NC(=O)[C@H](CC(C)C)NC(=O)[C@H](Cc1ccc(O)cc1)NC(=O)[C@H](CCCCN)NC(=O)[C@H](CO)NC(=O)[C@H](Cc1ccc(O)cc1)NC(=O)[C@H](CC(=O)O)NC(=O)[C@H](CO)NC(=O)[C@@H](NC(=O)[C@H](Cc1ccccc1)NC(=O)[C@@H](NC(=O)CNC(=O)[C@H](Cc1c[nH]cn1)NC(=O)C1(NC(=O)[C@@H](N)Cc2c[nH]cn2)CCC1)[C@@H](C)O)[C@@H](C)O)C(=O)N[C@@H](C)C(=O)N[C@@H](C)C(=O)N[C@@H](Cc1c[nH]cn1)C(=O)N[C@@H](CC(=O)O)C(=O)N[C@@H](Cc1ccccc1)C(=O)N[C@H](C(=O)N[C@@H](CCC(=O)O)C(=O)N[C@@H](Cc1c[nH]c2ccccc12)C(=O)N[C@@H](CC(C)C)C(=O)N[C@@H](CC(C)C)C(=O)N[C@@H](CO)C(=O)N[C@@H](C)C(N)=O)C(C)C)C(=O)O [Compound 9] (H-H[Ac4c]HGTFTSDYSKYLDSK([γGlu-Palmitoyl])AAHDFVEWLLSA-NH2) | 1.65 | 0.2 nM | – | 0.21 nM
4 | CCCCCCCCCCCCCCCC(=O)N[C@@H](CCC(=O)NCCCC[C@H](NC(=O)[C@H](CCC(=O)O)NC(=O)[C@H](CC(=O)O)NC(=O)[C@H](CC(C)C)NC(=O)[C@H](Cc1ccc(O)cc1)NC(=O)[C@H](CCCCN)NC(=O)[C@H](CO)NC(=O)[C@H](Cc1ccc(O)cc1)NC(=O)[C@H](CC(=O)O)NC(=O)[C@H](CO)NC(=O)[C@@H](NC(=O)[C@H](Cc1ccccc1)NC(=O)[C@@H](NC(=O)CNC(=O)[C@H](CCC(N)=O)NC(=O)[C@H](CC)NC(=O)[C@@H](N)Cc1c[nH]cn1)[C@@H](C)O)[C@@H](C)O)C(=O)N[C@@H](C)C(=O)N[C@@H](C)C(=O)N[C@@H](CCCCN)C(=O)N[C@@H](CC(=O)O)C(=O)N[C@@H](Cc1ccccc1)C(=O)N[C@H](C(=O)N[C@@H](CCC(=O)O)C(=O)N[C@@H](Cc1c[nH]c2ccccc12)C(=O)N[C@@H](CC(C)C)C(=O)N[C@@H](CCC(=O)O)C(=O)N[C@@H](CO)C(=O)N[C@@H](C)C(N)=O)[C@@H](C)CC)C(=O)O [Compound 10] | 2.7 | 0.1 nM | 0.27 nM | –

Other lines, results leading:

Row | Ratio GLP-1/Glucagon [1] | EC50 [2] | EC50 [1] | EC50 [3] | Compound
5 | – | 0.1 nM | – | – | CCCCCCCCCCCCCCCC(=O)N[C@@H](CCC(=O)NCCCC[C@H](NC(=O)[C@H](CCC(=O)O)NC(=O)[C@H](CC(=O)O)NC(=O)[C@H](CC(C)C)NC(=O)[C@H](Cc1ccc(O)cc1)NC(=O)[C@H](CCCCN)NC(=O)[C@H](CO)NC(=O)[C@H](Cc1ccc(O)cc1)NC(=O)[C@H](CC(=O)O)NC(=O)[C@H](CO)NC(=O)[C@@H](NC(=O)[C@H](Cc1ccccc1)NC(=O)[C@@H](NC(=O)CNC(=O)[C@H](Cc1c[nH]cn1)NC(=O)C1(NC(=O)[C@@H](N)Cc2c[nH]cn2)CCC1)[C@@H](C)O)[C@@H](C)O)C(=O)N[C@@H](C)C(=O)N[C@@H](C)C(=O)N[C@@H](CCCCN)C(=O)N[C@@H](CC(=O)O)C(=O)N[C@@H](Cc1ccccc1)C(=O)N[C@H](C(=O)N[C@@H](CCC(=O)O)C(=O)N[C@@H](Cc1c[nH]c2ccccc12)C(=O)N[C@@H](CC(C)C)C(=O)N[C@@H](CCC(=O)O)C(=O)N[C@@H](CO)C(=O)N[C@@H](C)C(N)=O)[C@@H](C)CC)C(=O)O [Compound 15]
6 | 3.38 | – | 0.27 nM | 0.21 nM | CCCCCCCCCCCCCCCC(=O)N[C@@H](CCC(=O)NCCCC[C@H](NC(=O)[C@H](CCC(=O)O)NC(=O)[C@H](CC(=O)O)NC(=O)[C@H](CC(C)C)NC(=O)[C@H](Cc1ccc(O)cc1)NC(=O)[C@H](CCCCN)NC(=O)[C@H](CO)NC(=O)[C@H](Cc1ccc(O)cc1)NC(=O)[C@H](CC(=O)O)NC(=O)[C@H](CO)NC(=O)[C@@H](NC(=O)[C@H](Cc1ccccc1)NC(=O)[C@@H](NC(=O)CNC(=O)[C@H](CCC(N)=O)NC(=O)C(C)(C)NC(=O)[C@@H](N)Cc1c[nH]cn1)[C@@H](C)O)[C@@H](C)O)C(=O)N[C@@H](C)C(=O)N[C@@H](C)C(=O)N[C@@H](CCCCN)C(=O)N[C@@H](CC(=O)O)C(=O)N[C@@H](Cc1ccccc1)C(=O)N[C@H](C(=O)N[C@@H](CCC(=O)O)C(=O)N[C@@H](Cc1c[nH]c2ccccc12)C(=O)N[C@@H](CC(C)C)C(=O)N[C@@H](CCC(=O)O)C(=O)N[C@@H](CCC(=O)O)C(=O)N[C@@H](CCC(=O)O)C(N)=O)[C@@H](C)CC)C(=O)O [Compound 17] (H-H[Aib]QGTFTSDYSKYLDEK([γGlu-Palmitoyl])AAKDFIEWLEEE-NH2)
